Values joined by “and” are separate entries in the source; they are usually repeats but may differ in a detail not shown here. Equal entries are not always repeated. Records with an inconclusive call do not appear.

The record followed here is PubChem BioAssay AID332 (DTP/NCI, 2004).

For the assay, the system named is mice, ADJ-PC-20 plasma cell tumor sc, T/C %. In words: NCI In Vivo Anticancer Drug Screen. Data for tumor model ADJ-PC-20 Plasma Cell (subcutaneous) in unknown mice. To be noted: endpoint: mean tumor weight, higher = larger tumour. The protocol: The antitumor activity of compounds was measured in mice bearing transplantable tumors. Survival or tumor size were measured and the results are expressed as the measurement made in the treated group (T) divided by the measurement made in the vehicle treated control group (C). The tumor model used in this assay is ADJ-PC-20 Plasma Cell (subcutaneous) in unknown mice

The mark [1] stands for this setting: dose: 250.0 mg/kg/injection, schedule: Q01DX010 (ip), vehicle: saline.
[2] abbreviates: dose: 500.0 mg/kg/injection, schedule: Q01DX010 (ip), vehicle: saline.
Setting [3] is: dose: 6.25 mg/kg/injection, schedule: Q01DX010 (ip), vehicle: carboxymethylcellulose (CMC).
[4] abbreviates: dose: 12.5 mg/kg/injection, schedule: Q01DX010 (ip), vehicle: carboxymethylcellulose (CMC).
Setting [5] is: dose: 25.0 mg/kg/injection, schedule: Q01DX010 (ip), vehicle: carboxymethylcellulose (CMC).
Where [6] appears, read: dose: 50.0 mg/kg/injection, schedule: Q01DX010 (ip), vehicle: carboxymethylcellulose (CMC).
The mark [7] stands for this setting: dose: 1.25 mg/kg/injection, schedule: Q01DX010 (ip), vehicle: saline.
The mark [8] stands for this setting: dose: 125.0 mg/kg/injection, schedule: Q01DX010 (ip), vehicle: carboxymethylcellulose (CMC).
Setting [9] is: dose: 500.0 mg/kg/injection, schedule: Q01DX010 (ip), vehicle: carboxymethylcellulose (CMC).
[10] abbreviates: dose: 1000.0 mg/kg/injection, schedule: Q01DX010 (ip), vehicle: carboxymethylcellulose (CMC).

In the case of `CCN(CC)CCNc1ccc(C)c2sc3ccccc3c(=O)c12`, the T/C is, setting by setting: (dose: 0.78 mg/kg/injection, schedule: Q01DX010 (ip), vehicle: methylcellulose (MC)) 150 % of control; (dose: 1.56 mg/kg/injection, schedule: Q01DX010 (ip), vehicle: methylcellulose (MC)) 194 % of control; (dose: 6.25 mg/kg/injection, schedule: Q01DX010 (ip), vehicle: methylcellulose (MC)) 27 % of control.

For the compound `CN(C)CC(=O)c1ccc(O)c(O)c1`, the T/C runs as follows: (dose: 62.5 mg/kg/injection, schedule: Q01DX010 (ip), vehicle: saline) 99 % of control; under setting [1], 77 % of control; under setting [2], 72 % of control and 86 % of control.

Turning to `Nc1nc(N)c2nc(CNc3ccc(C(=O)NC(CCC(=O)O)C(=O)O)cc3)cnc2n1` (configuration not stated), the T/C reads like this: (dose: 63.0 micrograms/kg/injection, schedule: Q01DX010 (ip), vehicle: alkali diluted with saline) 86 % of control; (dose: 125.0 micrograms/kg/injection, schedule: Q01DX010 (ip), vehicle: alkali diluted with saline) 82 % of control.

As to `C[C@H](N)C(=O)N[C@@H]1[C@H]2C(=C(O)C[C@@H](O)[C@@H]2O)C(=O)O[C@@H]1C`, the T/C by setting is: under setting [1], 48 % of control; under setting [2], 58 % of control.

Take `CCCNc1ncnc2[nH]ncc12`: the T/C by setting is: (dose: 5.0 mg/kg/injection, schedule: Q01DX010 (ip), vehicle: water) 97 % of control; (dose: 10.0 mg/kg/injection, schedule: Q01DX010 (ip), vehicle: water) 86 % of control; (dose: 20.0 mg/kg/injection, schedule: Q01DX010 (ip), vehicle: water) 95 % of control.

On to `CN(Cc1cnc2nc(N)nc(N)c2n1)c1c(Cl)cc(C(=O)NC(CCC(=O)O)C(=O)O)cc1Cl` (configuration not stated), for which the T/C reads like this: under setting [3], 93 % of control; under setting [4], 112 % of control; under setting [5], 79 % of control and 97 % of control; under setting [6], 71 % of control.

Regarding `O=C(Nc1ccc(C2=NCCN2)cc1)c1cccc(C(=O)Nc2ccc(C3=NCCN3)cc2)c1`, the T/C by setting is: (dose: 9.4 mg/kg/injection, schedule: Q01DX010 (ip), vehicle: carboxymethylcellulose (CMC)) 154 % of control; (dose: 18.8 mg/kg/injection, schedule: Q01DX010 (ip), vehicle: carboxymethylcellulose (CMC)) 214 % of control; (dose: 37.5 mg/kg/injection, schedule: Q01DX010 (ip), vehicle: carboxymethylcellulose (CMC)) 187 % of control.

Turning to `C[n+]1c2ccccc2nc2c(N)cc(N)cc21`, the T/C under setting [3] was 92 % of control, the T/C under setting [4] was 114 % of control and the T/C under setting [5] was 99 % of control.

`O=c1cnn(C2OC(CO)C(O)C2O)c(=O)[nH]1` (configuration not stated): the T/C was 51 % of control (dose: 31.0 mg/kg/injection, schedule: Q01DX011 (ip), vehicle: water); 52 % of control (dose: 62.5 mg/kg/injection, schedule: Q01DX011 (ip), vehicle: water); 41 % of control (dose: 125.0 mg/kg/injection, schedule: Q01DX010 (ip), vehicle: water); 69 % of control (dose: 125.0 mg/kg/injection, schedule: Q01DX011 (ip), vehicle: water); 49 % of control (dose: 250.0 mg/kg/injection, schedule: Q01DX010 (ip), vehicle: water); 30 % of control (dose: 250.0 mg/kg/injection, schedule: Q01DX011 (ip), vehicle: water).

`O=P1(N(CCCl)CCCl)NCCCO1` (configuration not stated): the T/C is 21 % of control (dose: 3.2 mg/kg/injection, schedule: Q01DX010 (ip), vehicle: saline) and 7 % of control (dose: 6.25 mg/kg/injection, schedule: Q01DX010 (ip), vehicle: saline).

For `N=[N+]=CC(=O)OCC(N)C(=O)O` (configuration not stated), the T/C is, setting by setting: under setting [7], 120 % of control; (dose: 5.0 mg/kg/injection, schedule: Q01DX010 (ip), vehicle: saline) 93 % of control.

Regarding `C[C@]12CCC(=O)C=C1CC[C@H]1[C@@H]3CC[C@](O)(C(=O)CO)[C@@]3(C)C[C@H](O)[C@@]12F`, the T/C by setting is: (dose: 2.5 mg/kg/injection, schedule: Q01DX010 (sc), vehicle: steriod suspending solution) 62 % of control; (dose: 5.0 mg/kg/injection, schedule: Q01DX010 (sc), vehicle: steriod suspending solution) 43 % of control; (dose: 10.0 mg/kg/injection, schedule: Q01DX010 (sc), vehicle: steriod suspending solution) 33 % of control.

Take `O=C(O)CCCc1ccc(N(CCCl)CCCl)cc1`: the T/C runs as follows: under setting [3], 120 % of control; under setting [4], 58 % of control.

`Nc1ncnc2c1ccn2C1OC(CO)C(O)C1O` (configuration not stated): the T/C (dose: 0.63 mg/kg/injection, schedule: Q01DX010 (ip), vehicle: carboxymethylcellulose (CMC)) was 94 % of control.

For the compound `COc1cc2c(c(OC)c1OC)-c1ccc(OC)c(=O)cc1[C@@H](NC(C)=O)CC2`, the T/C is 99 % of control (dose: 8.0 micrograms/kg/injection, schedule: Q01DX010 (ip), vehicle: saline); 114 % of control (dose: 16.0 micrograms/kg/injection, schedule: Q01DX010 (ip), vehicle: saline); 105 % of control (dose: 31.0 micrograms/kg/injection, schedule: Q01DX010 (ip), vehicle: saline).

In the case of `CC(=O)Nc1ccc2nc3ccc(NC(C)=O)cc3[n+](-c3ccccc3)c2c1`, the T/C was 65 % of control under setting [4], 76 % of control under setting [5] and 77 % of control under setting [6].

For `CCCSc1ncnc2nc[nH]c12`, the T/C runs as follows: (dose: 4.0 mg/kg/injection, schedule: Q01DX010 (ip), vehicle: carboxymethylcellulose (CMC)) 81 % of control; (dose: 8.0 mg/kg/injection, schedule: Q01DX010 (ip), vehicle: carboxymethylcellulose (CMC)) 43 % of control; (dose: 16.0 mg/kg/injection, schedule: Q01DX010 (ip), vehicle: carboxymethylcellulose (CMC)) 28 % of control.

Take `O=c1[nH]c(=O)n(C2CC(O)C(CO)O2)cc1Br` (configuration not stated): the T/C was 80 % of control (dose: 31.25 mg/kg/injection, schedule: Q01DX010 (ip), vehicle: carboxymethylcellulose (CMC)); 86 % of control (dose: 62.5 mg/kg/injection, schedule: Q01DX010 (ip), vehicle: carboxymethylcellulose (CMC)); 74 % of control under setting [8]; 88 % of control under setting [9]; 74 % of control under setting [10].

Consider `O=C(Nc1ccc(C2=NCCN2)cc1)c1ccc(C(=O)Nc2ccc(C3=NCCN3)cc2)cc1`, for which the T/C reads like this: under setting [5], 73 % of control; under setting [6], 78 % of control; (dose: 100.0 mg/kg/injection, schedule: Q01DX010 (ip), vehicle: carboxymethylcellulose (CMC)) 60 % of control; (dose: 200.0 mg/kg/injection, schedule: Q01DX010 (ip), vehicle: carboxymethylcellulose (CMC)) 71 % of control.

In the case of `S=P(N1CC1)(N1CC1)N1CC1`, the T/C was 57 % of control (dose: 0.63 mg/kg/injection, schedule: Q01DX010 (ip), vehicle: saline) and 2 % of control under setting [7].

For the compound `Cc1n[nH]c(=O)[nH]c1=O`, the T/C (dose: 100.0 mg/kg/injection, schedule: Q01DX010 (ip), vehicle: other) is 80 % of control and the T/C (dose: 200.0 mg/kg/injection, schedule: Q01DX010 (ip), vehicle: other) is 85 % of control.

As for `O=c1cn[nH]c(=O)[nH]1`, the T/C was 75 % of control under setting [8]; 64 % of control (dose: 250.0 mg/kg/injection, schedule: Q01DX010 (ip), vehicle: carboxymethylcellulose (CMC)); 66 % of control under setting [9]; 38 % of control under setting [10].

With `N#Cc1cn(C2OC(CO)C(O)C2O)c2ncnc(N)c12` (configuration not stated), the T/C (dose: 0.12 mg/kg/injection, schedule: Q01DX010 (ip), vehicle: carboxymethylcellulose (CMC)) is 47 % of control.

On to `C[N+](C)(C)c1ncnc2nc[nH]c12`, for which the T/C runs as follows: (dose: 0.8 mg/kg/injection, schedule: Q01DX010 (ip), vehicle: carboxymethylcellulose (CMC)) 70 % of control; (dose: 1.6 mg/kg/injection, schedule: Q01DX010 (ip), vehicle: carboxymethylcellulose (CMC)) 59 % of control; (dose: 3.1 mg/kg/injection, schedule: Q01DX010 (ip), vehicle: carboxymethylcellulose (CMC)) 69 % of control; (dose: 6.3 mg/kg/injection, schedule: Q01DX010 (ip), vehicle: carboxymethylcellulose (CMC)) 70 % of control; under setting [4], 36 % of control; under setting [5], 52 % of control. Moreover, the T/C under setting [6] is 6 % of control.

With `COc1ccc(/C=N/NC(N)=S)cc1`, the T/C is 87 % of control (dose: 75.0 mg/kg/injection, schedule: Q01DX010 (ip), vehicle: saline); 99 % of control (dose: 150.0 mg/kg/injection, schedule: Q01DX010 (ip), vehicle: saline); 82 % of control (dose: 300.0 mg/kg/injection, schedule: Q01DX010 (ip), vehicle: saline); 85 % of control (dose: 600.0 mg/kg/injection, schedule: Q01DX010 (ip), vehicle: saline).
